Assay results reported in patent publication US12624034B2, “Non-covalent modifiers of AKT1 and uses thereof” (Terremoto Biosciences, Inc., priority 2023, dated 2026).

Tests used:
[1] = biological target: T1, AKT2 (Homo sapiens, UniProt P31751); experiment: Live cell AKT2 target engagement by NanoBRET competitive probe displacement in HEK293 cells; type: binding; settings: NanoBRET live cell target engagement, HEK293 cells, 2 h at 37° C.; read-out: AKT2 IC50
T1 construct: expressed in transfected cells; host or cells: HEK293
T1 sequence (P31751 whole entry): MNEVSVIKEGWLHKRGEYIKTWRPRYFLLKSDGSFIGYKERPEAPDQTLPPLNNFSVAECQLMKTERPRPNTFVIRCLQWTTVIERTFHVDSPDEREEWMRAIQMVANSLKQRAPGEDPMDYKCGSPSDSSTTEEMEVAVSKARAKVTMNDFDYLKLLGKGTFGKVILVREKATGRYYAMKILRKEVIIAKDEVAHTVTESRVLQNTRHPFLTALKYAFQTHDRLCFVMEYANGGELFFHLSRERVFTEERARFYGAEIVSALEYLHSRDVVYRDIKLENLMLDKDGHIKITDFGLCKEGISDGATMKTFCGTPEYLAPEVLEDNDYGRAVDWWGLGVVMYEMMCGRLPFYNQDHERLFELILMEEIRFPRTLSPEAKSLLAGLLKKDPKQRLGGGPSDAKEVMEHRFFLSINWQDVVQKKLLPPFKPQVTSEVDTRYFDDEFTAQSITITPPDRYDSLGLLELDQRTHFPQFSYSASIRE

[2] = biological target: T2, AKT1 WT (Homo sapiens, UniProt P31749); experiment: Live cell AKT1 WT target engagement by NanoBRET competitive probe displacement in HEK293 cells; type: binding; settings: NanoBRET live cell target engagement, HEK293 cells, 2 h at 37° C.; read-out: AKT1 WT IC50
T2 construct: expressed in transfected cells; host or cells: HEK293
T2 sequence (P31749 whole entry): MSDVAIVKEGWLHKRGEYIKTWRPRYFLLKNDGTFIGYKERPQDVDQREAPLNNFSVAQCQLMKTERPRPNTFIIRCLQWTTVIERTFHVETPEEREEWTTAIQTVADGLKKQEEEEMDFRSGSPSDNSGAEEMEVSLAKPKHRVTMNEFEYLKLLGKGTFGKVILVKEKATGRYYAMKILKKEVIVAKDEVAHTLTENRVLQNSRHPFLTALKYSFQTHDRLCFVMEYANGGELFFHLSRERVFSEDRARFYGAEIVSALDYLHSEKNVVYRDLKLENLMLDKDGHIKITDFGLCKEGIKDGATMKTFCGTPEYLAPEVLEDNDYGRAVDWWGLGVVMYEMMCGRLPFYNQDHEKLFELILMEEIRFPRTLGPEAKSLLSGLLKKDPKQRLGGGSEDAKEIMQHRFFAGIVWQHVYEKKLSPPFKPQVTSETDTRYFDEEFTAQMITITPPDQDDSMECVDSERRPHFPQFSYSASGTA

[3] = system: LAPC4 prostate cancer cells, which express the AKT1 E17K allele; experiment: Antiproliferative effects in LAPC4 cells (CellTiter Glo, 72 h); type: cell-based; settings: Homo sapiens, LAPC4, 72 h, read-out: LAPC4 proliferation IC50
In short: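 Luminescent ATP read-out (CellTiter Glo) after 72 h compound exposure; 1,000 cells/well in IMDM + 12% FBS + 1% P/S. IC50 by Hill equation fit of luminescence vs. log(inhibitor).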

[4] = biological target: T3, AKT1 E17K (Homo sapiens, UniProt P31749, E17K); experiment: Live cell AKT1 E17K target engagement by NanoBRET competitive probe displacement in HEK293 cells; type: binding; settings: NanoBRET live cell target engagement, HEK293 cells, 2 h at 37° C.
T3 construct: expressed in transfected cells; host or cells: HEK293
T3 sequence (P31749 whole entry E17K): as the sequence (P31749 whole entry) above, with E17K counted along it
In short: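 Read-out: BRET ratio E600/E460 from luminescence at 460 and 600 nm, fitted to a log(inhibitor) vs. response Hill equation for IC50. Intact HEK293 cells expressing NanoLuc-tagged kinase, compound dilutions with ~EC50 ATP-competitive fluorescent tracer, 2 h, 37° C.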

Row | SMILES | IC50 [1] [nM] | IC50 [2] [nM] | IC50 [3] [nM] | IC50 [4] [nM]
1 | Nc1ncccc1-c1nc2ccc(-n3cccn3)nc2n1-c1ccc2c(c1)CC[C@@H]2NC(=O)Cc1ccn[nH]1 [Compound 51, (S)—N-(5-(2-(2-aminopyridin-3-yl)-5-(1H-pyrazol-1-yl)-3H-imidazo[4,5-b]pyridin-3-yl)-2,3-dihydro-1H-inden-1-yl)-2-(1H-pyrazol-5-yl)acetamide] | 4560 | 137 | > 10000 | > 1000
2 | Cc1ccc(C(=O)N[C@H]2CCc3cc(-n4c(-c5cccnc5N)nc5ccc(-n6ccc(F)n6)nc54)ccc32)cn1 [Compound 52, (S)—N-(5-(2-(2-aminopyridin-3-yl)-5-(3-fluoro-1H-pyrazol-1-yl)-3H-imidazo[4,5-b]pyridin-3-yl)-2,3-dihydro-1H-inden-1-yl)-6-methylnicotinamide] | 128 | 11.6 | 915 | 357
3 | Nc1ncccc1-c1nc2ccc(-n3ccc(F)n3)nc2n1-c1ccc2c(c1)CC[C@@H]2NC(=O)c1ccc(C(F)F)nc1 [Compound 53, (S)—N-(5-(2-(2-aminopyridin-3-yl)-5-(3-fluoro-1H-pyrazol-1-yl)-3H-imidazo[4,5-b]pyridin-3-yl)-2,3-dihydro-1H-inden-1-yl)-6-(difluoromethyl)nicotinamide] | 118 | 18.1 | 1120 | 142
4 | Nc1ncccc1-c1nc2ccc(-n3cccn3)nc2n1-c1ccc2c(c1)CC[C@@H]2NC(=O)c1ccc(-n2cccn2)nc1 [Compound 54, (S)—N-(5-(2-(2-aminopyridin-3-yl)-5-(1H-pyrazol-1-yl)-3H-imidazo[4,5-b]pyridin-3-yl)-2,3-dihydro-1H-inden-1-yl)-6-(1H-pyrazol-1-yl)nicotinamide] | 10.7 | 12 | 207 | 17.4
5 | C#Cc1ccc(C(=O)N[C@H]2CCc3cc(-n4c(-c5cccnc5N)nc5ccc(-n6cccn6)nc54)ccc32)cn1 [Compound 55, (S)—N-(5-(2-(2-aminopyridin-3-yl)-5-(1H-pyrazol-1-yl)-3H-imidazo[4,5-b]pyridin-3-yl)-2,3-dihydro-1H-inden-1-yl)-6-ethynylnicotinamide] | 49.2 | 16.2 | 1510 | 107
6 | Cc1cc(C(F)F)ncc1C(=O)N[C@H]1CCc2cc(-n3c(-c4cccnc4N)nc4ccc(-n5cccn5)nc43)ccc21 [Compound 56, (S)—N-(5-(2-(2-aminopyridin-3-yl)-5-(1H-pyrazol-1-yl)-3H-imidazo[4,5-b]pyridin-3-yl)-2,3-dihydro-1H-inden-1-yl)-6-(difluoromethyl)-4-methylnicotinamide] | 43.3 | 12.2 | 1630 | 143
7 | CCc1coc(C(=O)N[C@H]2CCc3cc(-n4c(-c5cccnc5N)nc5ccc(-n6cccn6)nc54)ccc32)n1 [Compound 57, (S)—N-(5-(2-(2-aminopyridin-3-yl)-5-(1H-pyrazol-1-yl)-3H-imidazo[4,5-b]pyridin-3-yl)-2,3-dihydro-1H-inden-1-yl)-4-ethyloxazole-2-carboxamide] | 52.8 | 23.4 | 1320 | 192
8 | Nc1ncccc1-c1nc2ccc(-n3nccn3)nc2n1-c1ccc2c(c1)CC[C@@H]2NC(=O)c1cccnc1 [Compound 58, (S)—N-(5-(2-(2-aminopyridin-3-yl)-5-(2H-1,2,3-triazol-2-yl)-3H-imidazo[4,5-b]pyridin-3-yl)-2,3-dihydro-1H-inden-1-yl)nicotinamide] | 2040 | 30.7 | 1900 | 157
9 | Nc1ncccc1-c1nc2ccc(-n3nccn3)nc2n1-c1ccc2c(c1)CC[C@@H]2NC(=O)c1cncnc1 [Compound 59, (S)—N-(5-(2-(2-aminopyridin-3-yl)-5-(2H-1,2,3-triazol-2-yl)-3H-imidazo[4,5-b]pyridin-3-yl)-2,3-dihydro-1H-inden-1-yl)pyrimidine-5-carboxamide] | 3430 | 48.8 | 3620 | 261
10 | Cc1cc(C(=O)N[C@H]2CCc3cc(-n4c(-c5cccnc5N)nc5ccc(-n6cccn6)nc54)ccc32)cnc1C(F)F [Compound 60, (S)—N-(5-(2-(2-aminopyridin-3-yl)-5-(1H-pyrazol-1-yl)-3H-imidazo[4,5-b]pyridin-3-yl)-2,3-dihydro-1H-inden-1-yl)-6-(difluoromethyl)-5-methylnicotinamide] | 31.5 | 2.5 | 741 | 62.1
11 | Nc1ncccc1-c1nc2ccc(-n3cccn3)nc2n1-c1ccc2c(c1)CC[C@@H]2NC(=O)c1ccc(C(F)F)cc1 [Compound 61, (S)—N-(5-(2-(2-aminopyridin-3-yl)-5-(1H-pyrazol-1-yl)-3H-imidazo[4,5-b]pyridin-3-yl)-2,3-dihydro-1H-inden-1-yl)-4-(difluoromethyl)benzamide] | 49.7 | 4.75 | 921 | 72.6
12 | Nc1ncccc1-c1nc2ccc(-n3cccn3)nc2n1-c1ccc2c(c1)CC[C@@H]2NC(=O)c1cnc(C(F)F)c(F)c1 [Compound 62, (S)—N-(5-(2-(2-aminopyridin-3-yl)-5-(1H-pyrazol-1-yl)-3H-imidazo[4,5-b]pyridin-3-yl)-2,3-dihydro-1H-inden-1-yl)-6-(difluoromethyl)-5-fluoronicotinamide] | 59.5 | 4.97 | 692 | 64
13 | CN(C)c1cc(C(=O)N[C@H]2CCc3cc(-n4c(-c5cccnc5N)nc5ccc(-n6cccn6)nc54)ccc32)ccn1 [Compound 63, (S)—N-(5-(2-(2-aminopyridin-3-yl)-5-(1H-pyrazol-1-yl)-3H-imidazo[4,5-b]pyridin-3-yl)-2,3-dihydro-1H-inden-1-yl)-2-(dimethylamino)isonicotinamide] | 12.6 | 2.57 | 970 | 73.9
14 | Nc1ncccc1-c1nc2ccc(-n3cccn3)nc2n1-c1ccc2c(c1)CC[C@@H]2NC(=O)c1ccnc(OC(F)(F)F)c1 [Compound 64, (S)—N-(5-(2-(2-aminopyridin-3-yl)-5-(1H-pyrazol-1-yl)-3H-imidazo[4,5-b]pyridin-3-yl)-2,3-dihydro-1H-inden-1-yl)-2-(trifluoromethoxy)isonicotinamide] | 183 | 4.63 | 2620 | 159
15 | Nc1ncccc1-c1nc2ccc(-n3nccn3)nc2n1-c1ccc2c(c1)CC[C@@H]2NC(=O)c1ccc(C(F)F)nc1 [Compound 65, (S)—N-(5-(2-(2-aminopyridin-3-yl)-5-(2H-1,2,3-triazol-2-yl)-3H-imidazo[4,5-b]pyridin-3-yl)-2,3-dihydro-1H-inden-1-yl)-6-(difluoromethyl)nicotinamide] | 1070 | 19.4 | 925 | 292
16 | Cc1ccc(C(=O)N[C@H]2CCc3cc(-n4c(-c5cccnc5N)nc5ccc(-n6nccn6)nc54)ccc32)cn1 [Compound 67] | 636 | 15 | 1140 | 229
17 | Nc1ncccc1-c1nc2ccc(-n3cccn3)nc2n1-c1ccc2c(c1)CC[C@@H]2NC(=O)c1cncnc1C(F)F [Compound 116] | 303 | 10.2 | 5240 | 157
18 | Nc1ncccc1-c1nc2ccc(-n3cccn3)nc2n1-c1ccc2c(c1)CC[C@@H]2NC(=O)c1ccn(C(F)F)n1 [Compound 174] | 431 | 13.2 | 1440 | 52
19 | Nc1ncccc1-c1nc2ccc(-n3cccn3)nc2n1-c1ccc2c(c1)CC[C@@H]2n1cc(C2CC2)nn1 [Compound 221] | 449 | 10.9 | 1280 | 5.8
20 | Nc1ncccc1-c1nc2ccc(-n3cccn3)nc2n1-c1ccc2c(c1)CC[C@@H]2NC(=O)c1ccnc2c1CCO2 [Compound 225] | 343 | 11.3 | 8430 | 408
21 | Nc1ncccc1-c1nc2ccc(-n3cccn3)nc2n1-c1ccc2c(c1)CC[C@@H]2NC(=O)c1ccc(O)c(C(F)(F)F)c1 [Compound 257] | 273 | 8.26 | 1430 | 16.5
22 | Nc1ncccc1-c1nc2ccc(-n3cccn3)nc2n1-c1ccc2c(c1)CC[C@@H]2NC(=O)c1ccc(F)c(F)c1 [Compound 262] | 211 | 8.14 | 2340 | 68.1
23 | CN1CCC(N[C@H]2CCc3cc(-n4c(-c5cccnc5N)nc5ccc(-n6cccn6)nc54)ccc32)CC1 [Compound 274] | 5000 | 593 | > 10000 | > 1000
24 | Nc1ncccc1-c1nc2ccc(-n3cccn3)nc2n1-c1ccc2c(c1)CC[C@@H]2NC1CCN(C(=O)c2ccccc2)CC1 [Compound 275] | 1070 | 51 | 4380 | 570
25 | Cn1ccc(N2CCC(N[C@H]3CCc4cc(-n5c(-c6cccnc6N)nc6ccc(-n7cccn7)nc65)ccc43)CC2)n1 [Compound 276] | 1200 | 47.4 | > 10000 | > 1000
26 | Nc1ncccc1-c1nc2ccc(-n3cccn3)nc2n1-c1ccc2c(c1)CC[C@@H]2NC1CCN(c2ccccn2)CC1 [Compound 277] | 486 | 25.1 | 2440 | 365
